Assay results taken from PMC5681660, “Reduced hepatitis B and D viral entry using clinically applied drugs as novel inhibitors of the bile acid transporter NTCP” (Scientific Reports, 2017).
Structures can show the parent of a compound that is named as a salt.

Target: T1, human NTCP (Homo sapiens, UniProt Q14973)
T1 sequence (Q14973 1-349): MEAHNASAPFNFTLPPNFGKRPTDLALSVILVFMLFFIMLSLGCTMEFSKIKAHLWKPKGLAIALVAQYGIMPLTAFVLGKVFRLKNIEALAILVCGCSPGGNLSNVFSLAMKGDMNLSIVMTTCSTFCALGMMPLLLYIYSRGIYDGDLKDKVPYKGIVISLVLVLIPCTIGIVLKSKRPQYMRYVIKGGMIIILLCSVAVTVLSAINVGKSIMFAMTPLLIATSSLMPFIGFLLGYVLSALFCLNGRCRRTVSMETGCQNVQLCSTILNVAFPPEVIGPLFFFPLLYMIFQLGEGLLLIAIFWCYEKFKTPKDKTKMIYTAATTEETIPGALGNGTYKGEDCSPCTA
Experiment: Screening taurocholate uptake assay (96-well, [14C]taurocholate, 10 µM drug)
Settings: for B-score functional assay: screening taurocholate uptake, 10 µM drug

[1] = ranking over the functional and the binding screening assay
[2] = combined ranking of functional and binding screening assays

| Compound | Ranking score [1] | B-score functional assay | Ranking score [2] | B-score functional assay (B-score) |
| --- | --- | --- | --- | --- |
| CC1(C)S[C@@H]2[C@H](NC(=O)[C@H](NC(=O)N3CCNC3=O)c3ccccc3)C(=O)N2[C@H]1C(=O)O [Azlocillin sodium salt] | 129.337 | -0.407 |  |  |
| CCOC(=O)OC(C)OC(=O)[C@@H]1N2C(=O)[C@@H](NC(=O)[C@H](N)c3ccccc3)[C@H]2SC1(C)C (stereo partly drawn) [Bacampicillin hydrochloride] |  | -0.626 | 500.635 |  |
| CN(C)C(=O)Oc1cc(OC(=O)N(C)C)cc(C(O)CNC(C)(C)C)c1.Cl (stereo not drawn) [Bambuterol hydrochloride] |  | -0.006 | 562.701 |  |
| CCC(=O)OCC(=O)[C@@]1(OC(=O)CC)[C@@H](C)C[C@H]2[C@@H]3CCC4=CC(=O)C=C[C@]4(C)[C@@]3(Cl)[C@@H](O)C[C@@]21C [Beclomethasone dipropionate] | 123.665 | -3.95 |  |  |
| CCC1(C)CC(=O)NC(=O)C1 [Bemegride] | 76.1315 | -2.979 |  |  |
| C/C(=C(\CCOP(=O)(O)O)SC(=O)c1ccccc1)N(C=O)Cc1cnc(C)nc1N [Benfotiamine] |  | -0.56 | 532.072 |  |
| NC(CO)C(=O)NNCc1ccc(O)c(O)c1O (stereo not drawn) [Benserazide hydrochloride] |  | -0.402 | 520.826 |  |
| NC(=NCc1ccccc1)NC(=O)c1nc(Cl)c(N)nc1N [Benzamil hydrochloride] |  | -0.089 | 519.299 |  |
| CCc1oc2ccccc2c1C(=O)c1cc(Br)c(O)c(Br)c1 [Benzbromarone] | 148.825 | -5.011 |  |  |
| CCOC(=O)c1ccc(N)cc1 [Benzocaine] | 153.542 | -1.326 |  |  |
| CN1[C@@H]2CC[C@H]1C[C@@H](OC(c1ccccc1)c1ccccc1)C2 [Benztropine mesylate] |  | -0.008 | 529.655 |  |
| CN(C)CCCOc1nn(Cc2ccccc2)c2ccccc12 [Benzydamine hydrochloride] |  | 0.075 | 571.97 |  |
| C/C=C(\C)C(=O)O[C@H]1[C@H](OC(C)=O)[C@@]2(CO)C(CC1(C)C)C1=CC[C@@H]3[C@@]4(C)CC[C@H](O[C@@H]5O[C@H](C(=O)O)[C@@H](O[C@@H]6O[C@H](CO)[C@@H](O)[C@H](O)[C@H]6O)[C@H](O)[C@H]5O[C@@H]5O[C@H](CO)[C@@H](O)[C@H](O)[C@H]5O)[C@H](CO)C4CC[C@@]3(C)[C@@]1(C)C[C@H]2O (stereo partly drawn) [Beta-Escin] | 8.485 | -8.059 |  |  |
| CNCCc1ccccn1.CS(=O)(=O)O.CS(=O)(=O)O [Betahistine mesylate] | 145.348 | -5.129 |  |  |
| CC(C)NCC(O)COc1ccc(CCOCC2CC2)cc1 (stereo not drawn) [Betaxolol hydrochloride] |  | 0.038 | 583.493 |  |
| CC(O)(CS(=O)(=O)c1ccc(F)cc1)C(=O)Nc1ccc(C#N)c(C(F)(F)F)c1 (stereo not drawn) [Bicalutamide] | 258.616 | -0.361 |  |  |

| Compound | Ranking score [1] | B-score functional assay | Ranking score [2] | B-score functional assay (B-score) |
| --- | --- | --- | --- | --- |
| c1ccc(-c2ccc(C(c3ccccc3)n3ccnc3)cc2)cc1 (stereo not drawn) [Bifonazole] | 164.499 | -2.294 |  |  |
| O=C(O)CCCC[C@@H]1SC[C@@H]2NC(=O)N[C@@H]21 [Biotin] | 66.9328 | -2.274 |  |  |
| OC(CCN1CCCCC1)(c1ccccc1)C1CC2C=CC1C2 (stereo not drawn) [Biperiden hydrochloride] |  | -0.229 | 526.369 |  |
| CC(=O)Oc1ccc(C(c2ccc(OC(C)=O)cc2)c2ccccn2)cc1 [Bisacodyl] | 63 | -3.114 |  |  |
| CC(C)NCC(O)COc1ccc(COCCOC(C)C)cc1 (stereo not drawn) [Bisoprolol fumarate] | 263.481 | 0.023 |  |  |
| CN(Cc1cc(Br)cc(Br)c1N)C1CCCCC1 [Bromhexine hydrochloride] | 149.492 | -0.767 |  |  |
| CN(C)CCC(c1ccc(Br)cc1)c1ccccn1 (stereo not drawn) [Brompheniramine maleate] |  | -0.661 | 520.776 |  |
| CCCC(=O)Nc1ncnc2c1ncn2[C@@H]1O[C@@H]2COP(=O)([O-])O[C@H]2[C@H]1OC(=O)CCC.[Na+] [Bucladesine sodium salt] |  | -0.403 | 477.022 |  |
| CCCC1O[C@@H]2C[C@H]3[C@@H]4CCC5=CC(=O)C=C[C@]5(C)[C@H]4[C@@H](O)C[C@]3(C)[C@]2(C(=O)CO)O1 (stereo partly drawn) [Budesonide] |  | -0.64 | 628.462 |  |
| CCCCOc1ccc(CC(=O)NO)cc1 [Bufexamac] | 265.556 | -0.678 |  |  |
| CCCCN1CCCCC1C(=O)Nc1c(C)cccc1C (stereo not drawn) [Bupivacaine hydrochloride] | 231.991 | -1.136 |  |  |
| CC(NC(C)(C)C)C(=O)c1cccc(Cl)c1 (stereo not drawn) [Bupropion hydrochloride] |  | 0.583 | 557.749 |  |
| O=C1CC2(CCCC2)CC(=O)N1CCCCN1CCN(c2ncccn2)CC1 [Buspirone hydrochloride] | 215.998 | -0.772 |  |  |
| CS(=O)(=O)OCCCCOS(C)(=O)=O [Busulfan] | 269.796 | -1.026 |  |  |
| Clc1ccc(CCC(Cn2ccnc2)Sc2c(Cl)cccc2Cl)cc1 (stereo not drawn) [Butoconazole nitrate] | 196.25 | -3.692 |  |  |
| O=C(O)CCCc1ccc(N(CCCl)CCCl)cc1 [Chlorambucil] | 169.183 | -1.869 |  |  |

Further lines, results first:

| Ranking score [1] | B-score functional assay | Ranking score [2] | B-score functional assay (B-score) | Compound |
| --- | --- | --- | --- | --- |
| 164.682 | -4.364 |  |  | C=C1/C(=C\C=C2/CCC[C@]3(C)[C@@H]([C@H](C)/C=C/[C@@H](O)C4CC4)CC[C@@H]23)C[C@@H](O)C[C@@H]1O [Calcipotriene] |
|  | 0.619 | 511.9 |  | C[N+](C)(C)CCOC(N)=O [Carbachol] |
| 79.4984 | -5.734 |  |  | CC1(C)[C@@H](OC(=O)CCC(=O)O)CC[C@]2(C)[C@H]3C(=O)C=C4[C@@H]5C[C@@](C)(C(=O)O)CC[C@]5(C)CC[C@@]4(C)[C@]3(C)CC[C@@H]12 [Carbenoxolone disodium salt] |
|  | 0.686 | 597.675 |  | C[C@@](Cc1ccc(O)c(O)c1)(NN)C(=O)O [Carbidopa] |
| 161.053 | -0.455 |  |  | CCOC(=O)n1ccn(C)c1=S [Carbimazole] |
|  | -0.486 | 570.247 |  | CC(C)(C)NCC(O)COc1cccc2c1CCC(=O)N2 (stereo not drawn) [Carteolol hydrochloride] |
|  | -0.454 | 598.124 |  | C=CC1=C(C(=O)O)N2C(=O)[C@@H](NC(=O)/C(=N\O)c3csc(N)n3)[C@H]2SC1 [Cefdinir] |
|  |  | 1157.98 | 1.484 | CO/N=C(\C(=O)N[C@@H]1C(=O)N2C(C(=O)O)=C(C[N+]3(C)CCCC3)CS[C@H]12)c1csc(N)n1 [Cefepime hydrochloride] |
| 185.952 | -2.268 |  |  | C=CC1=C(C(=O)O)N2C(=O)[C@@H](NC(=O)/C(=N\OCC(=O)O)c3csc(N)n3)[C@H]2SC1 [Cefixime] |
| 266.713 | -1.174 |  |  | CO[C@@]1(NC(=O)CSCC#N)C(=O)N2C(C(=O)O)=C(CSc3nnnn3C)CS[C@@H]21 [Cefmetazole sodium salt] |
|  |  | 1237.77 | 3.778 | NCc1ccccc1CC(=O)N[C@@H]1C(=O)N2C(C(=O)O)=C(CSc3nnnn3CC(=O)O)CS[C@H]12 [Ceforanide] |
| 197.995 | 1.511 |  |  | CN(C)CCn1nnnc1SCC1=C(C(=O)O)N2C(=O)[C@@H](NC(=O)Cc3csc(N)n3)[C@H]2SC1 [Cefotiam hydrochloride] |
| 261.897 | -1.403 |  |  | Cc1cc(O)c(C(=O)N[C@@H](C(=O)N[C@@H]2C(=O)N3C(C(=O)O)=C(CSc4nnnn4C)CS[C@H]23)c2ccc(O)cc2)cn1 [Cefpiramide] |
|  | -0.201 | 640.176 |  | COCC1=C(C(=O)OC(C)OC(=O)OC(C)C)N2C(=O)[C@@H](NC(=O)/C(=N\OC)c3csc(N)n3)[C@H]2SC1 (stereo partly drawn) [Cefpodoxime proxetil] |
|  | -1.028 | 560.357 |  | CC(C)(O/N=C(\C(=O)N[C@@H]1C(=O)N2C(C(=O)[O-])=C(C[n+]3ccccc3)CS[C@H]12)c1csc(N)n1)C(=O)O [Ceftazidime pentahydrate] |
|  | -0.317 | 621.898 |  | CO/N=C(\C(=O)N[C@@H]1C(=O)N2C(C(=O)OC(C)OC(C)=O)=C(COC(N)=O)CS[C@H]12)c1ccco1 (stereo partly drawn) [Cefuroxime axetil] |
| 40.9878 | -1.277 |  |  | C[C@H](CCC(=O)O)[C@H]1CC[C@H]2[C@@H]3[C@H](O)C[C@@H]4C[C@H](O)CC[C@]4(C)[C@H]3CC[C@]12C [Chenodiol] |
|  | 2.451 | 594.757 |  | O=C(N[C@H](CO)[C@H](O)c1ccc([N+](=O)[O-])cc1)C(Cl)Cl [Chloramphenicol] |
|  |  | 1232.56 | 4.014 | CN1CCN(C(c2ccccc2)c2ccc(Cl)cc2)CC1 (stereo not drawn) [Chlorcyclizine hydrochloride] |
